In brackets after ≈: the same amount, converted by molar mass. Read-outs that look alike come from different tables or passages of the source.
Key:
[1] = biological target: Mtb Pks13-TE domain (wild-type) (Mycobacterium tuberculosis, UniProt I6X8D2); test: biochemical; type: biochemical; settings: for loss of inhibitory activity / higher IC50 against Pks13-TE compared to the test compound: relative to test compound
Mtb strain mc^27000 = test: microbe, parasite or virus in culture; type: cell-based, Mycobacterium tuberculosis
[2] = system: human dermal fibroblast (HDF) cells; settings: for Non-Toxic Concentration: human, 48 h
[3] = Pks13-TE, 20 μM 4-MUH, read-out: IC50
[4] = Pks13 enzyme inhibition, read-out: Pks13 IC50
[5] = Mycobacterium tuberculosis, Mtb mc^27000, liquid medium, 96-well plates, read-out: MIC
[6] = Mycobacterium tuberculosis, read-out: Pks13 MIC
[7] = HDF cell survival relative to DMSO-only control at the first (or only) Non-Toxic Concentration value
[8] = Mycobacterium tuberculosis, […], mean ± s.d. of triplicates, NI: no inhibition, read-out: MIC
[9] = Mtb Pks13-TE domain, mean ± s.d. of triplicates, read-out: IC50
[10] = Mtb mc^27000, liquid medium, 96-well plates, read-out: MIC
[11] = […], mean ± s.d. of triplicates, NI: no inhibition
[12] = HDF cell survival relative to DMSO-only control at the second Non-Toxic Concentration value
[13] = Mtb mc^27000, liquid medium, 96-well plates

Chain of Mtb Pks13-TE domain (wild-type) (I6X8D2 1451-1733): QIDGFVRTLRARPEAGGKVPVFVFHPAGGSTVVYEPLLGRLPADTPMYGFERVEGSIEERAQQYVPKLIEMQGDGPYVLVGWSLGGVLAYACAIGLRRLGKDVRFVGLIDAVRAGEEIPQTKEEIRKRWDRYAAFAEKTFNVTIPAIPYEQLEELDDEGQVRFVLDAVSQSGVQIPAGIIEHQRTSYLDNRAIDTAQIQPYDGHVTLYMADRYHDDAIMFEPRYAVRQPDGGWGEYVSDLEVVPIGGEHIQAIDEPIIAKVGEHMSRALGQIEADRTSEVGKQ

SMILES	IC50 [1, 3] [nM]	IC50 [1, 4] [nM]	MIC (Mtb strain mc^27000; [5]) [µM]	MIC (Mtb strain mc^27000; [6]) [µM]	Survival vs. Control [2, 7] [%]	Non-Toxic Concentration [2] [µM]	also measured
CCOC(=O)c1c(-c2ccccc2)oc2cc(N)cc(CN3CCCCC3)c12 [compound 34]	4500	4500	9.2 (≈ 3.48 µg/mL)	9.2 (≈ 3.48 µg/mL)	82	100	–
CCOC(=O)c1c(-c2ccccc2)oc2ccc(O)c(CN3CCCCC3)c12 [compound 13]	300	260	0.4 (≈ 0.152 µg/mL)	0.4 (≈ 0.152 µg/mL)	105	50	MIC (Mtb strain mc^27000; [8]): 0.4 µM (≈ 0.152 µg/mL); growth inhibition in HDF cells relative to DMSO only control [2]: did not show any growth inhibition
CCOC(=O)c1c(-c2ccccc2)oc2cc(O)cc(CN3CCCCC3)c12 [compound 38]	–	450	6.7 (≈ 2.54 µg/mL)	6.7 (≈ 2.54 µg/mL)	111	100	–
CCOC(=O)c1c(-c2ccccc2)oc2ccc(O)c(CN3CCCC3)c12 [compound 3]	240 ± 20	–	–	–	–	–	IC50 [1, 9]: 240 ± 20 nM; higher MIC compared to the test compound (Mtb strain mc^27000): ~2 fold; MIC (Mtb strain mc^27000; [10]): 4.1 µM (≈ 1.5 µg/mL); MIC (Mtb strain mc^27000; [11]): 4.1 ± 0.1 µM (≈ 1.5 µg/mL); IC50 ([2]; read-out: half-maximum inhibitory concentration in HDF cells, HDF cells, resazurin): > 15000 nM
CNC(=O)c1c(-c2ccc(F)cc2)oc2ccc(O)c(CN3CCCCC3)c12 [compound 29]	300	300	4.5 (≈ 1.72 µg/mL)	4.5 (≈ 1.72 µg/mL)	89	–	Survival vs. Control [2, 12]: 112%
O=C(c1c(-c2ccccc2)oc2ccc(O)c(CN3CCCCC3)c12)N1CCCCC1 [compound 42]	740	320	–	> 10	89	100	MIC (Mtb strain mc^27000; [10]): 3.1 µM (≈ 1.3 µg/mL)
CCOC(=O)c1c(-c2ccccc2)oc2cc(O)cc(CN3CCC(C#N)CC3)c12 [compound 69]	1600	1600	20 (≈ 8.09 µg/mL)	20 (≈ 8.09 µg/mL)	93	50	–
CCOC(=O)c1c(-c2cc(F)c(O)c(F)c2)oc2ccc(O)c(CN3CCCCC3)c12 [compound 63]	500	500	7 (≈ 3.02 µg/mL)	7 (≈ 3.02 µg/mL)	99	25	–
CCOC(=O)c1c(-c2ccccc2)oc2cc(OC)cc(CNC(C)C)c12 [compound 72]	> 10000	> 10000	7.4 (≈ 2.72 µg/mL)	7.4 (≈ 2.72 µg/mL)	91	3.125	–
CNC(=O)c1c(-c2ccccc2)oc2cc(O)cc(CN3CCCCC3)c12 [compound 40]	600	600	20 (≈ 7.29 µg/mL)	20 (≈ 7.29 µg/mL)	101	100	–
CNC(=O)c1c(-c2ccc(O)c(F)c2)oc2ccc(O)c(CN3CCCCC3)c12 [compound 61]	–	330	0.5 (≈ 0.199 µg/mL)	0.5 (≈ 0.199 µg/mL)	94	50	–
CNC(=O)c1c(-c2ccc(O)nc2)oc2cc(O)cc(CN3CCCCC3)c12 [compound 88]	–	2800	2.8 (≈ 1.07 µg/mL)	–	96	50	–
CNC(=O)c1c(-c2cc(F)c(O)c(F)c2)oc2ccc(O)c(CN3CCCCC3)c12 [compound 64]	1500	1500 to 1900	> 40	–	94	100	Pks13 MIC (Mtb strain mc^27000; whole cell, mc^27000 Mtb, NI at 40 μM): NI (40 μM)
CCOC(=O)c1c(-c2ccc(OC)cc2)oc2ccc(O)c(CN3CCCCC3)c12 [compound 21]	290	290	2.6 (≈ 1.06 µg/mL)	2.6 (≈ 1.06 µg/mL)	104	50	–
CCOC(=O)c1c(-c2ccccc2)oc2ccc(O)c(CN3CCCCCC3)c12 [compound 4]	280 ± 30	–	4.6 ± 0.3 (≈ 1.81 µg/mL)	–	–	–	IC50 [1, 9]: 280 ± 30 nM; higher MIC compared to the test compound (Mtb strain mc^27000): ~2 fold; MIC (Mtb strain mc^27000; [8]): 4.6 ± 0.03 µM (≈ 1.81 µg/mL); growth inhibition in HDF cells relative to DMSO only control [2]: did not show any growth inhibition
OCc1c(-c2ccccc2)oc2ccc(O)c(CN3CCCCC3)c12 [compound 65]	240	240	12.5 (≈ 4.22 µg/mL)	6 to 12.5 (≈ 2.02 to 4.22 µg/mL)	95	25	–
O=C(c1c(-c2ccccc2)oc2ccc(O)c(CN3CCCCC3)c12)N1CCNCC1 [compound 41]	440	740	20 (≈ 8.39 µg/mL)	3.1 (≈ 1.3 µg/mL)	100	100	–
CCOC(=O)c1c(-c2ccccc2)oc2ccc(O)c(CN3CCOCC3)c12 [compound 5]	710	–	–	–	–	–	IC50 [1, 9]: 710 ± 50 nM; IC50 value lower than compound F against Pks13-TE ([1]; relative to compound F): > 2 fold; loss of inhibitory activity / higher IC50 against Pks13-TE compared to the test compound [1]: ~3 fold; higher MIC compared to the test compound (Mtb strain mc^27000): 6 fold; MIC (Mtb strain mc^27000; [13]): 13.3 ± 1.6 µM (≈ 5.07 µg/mL); MIC (Mtb strain mc^27000; [11]): 13.3 ± 1.6 µM (≈ 5.07 µg/mL); MIC higher than compound F in whole cell testing (Mtb strain mc^27000; relative to compound F): ~2 fold; growth inhibition in HDF cells relative to DMSO only control ([2]; up to 40 (unit not given)): did not show any growth inhibition

SMILES	IC50 [1, 3] [nM]	IC50 [1, 4] [nM]	MIC (Mtb strain mc^27000; [5]) [µM]	MIC (Mtb strain mc^27000; [6]) [µM]	Survival vs. Control [2, 7] [%]	Non-Toxic Concentration [2] [µM]	also measured
CCOC(=O)c1c(-c2ccc(O)nc2)oc2ccc(O)c(CN3CCCCC3)c12 [compound 58]	–	360	4 (≈ 1.59 µg/mL)	4 (≈ 1.59 µg/mL)	95	50	–
CCOC(=O)c1c(-c2ccc(C#N)cc2)oc2ccc(O)c(CN3CCCCC3)c12 [compound 62]	270	270	1.5 (≈ 0.607 µg/mL)	1.5 (≈ 0.607 µg/mL)	90	6.25	–
CC(C)(C)OC(=O)N1CCN(C(=O)c2c(-c3ccccc3)oc3ccc(O)c(CN4CCCCC4)c23)CC1 [compound 39]	660	660	2.1 (≈ 1.09 µg/mL)	2.1 (≈ 1.09 µg/mL)	101	100	–
CCOC(=O)c1c(-c2ccccc2)oc2ccc(O)c(CCN3CCCC3)c12 [compound 102]	2500	700	0.7 (≈ 0.266 µg/mL)	–	91	1.56	–
CCOC(=O)c1c(-c2ccccc2)oc2cc(N)c(O)c(CN3CCCCC3)c12 [compound 27]	370	370	8 (≈ 3.16 µg/mL)	8 (≈ 3.16 µg/mL)	77	–	Survival vs. Control [2, 12]: 114%
Oc1ccc2[nH]c(-c3ccccc3)nc2c1CN1CCCCC1 [compound 8]	6800	6800	22 (≈ 6.76 µg/mL)	22 (≈ 6.76 µg/mL)	78	–	Survival vs. Control [2, 12]: 94%
CCOC(=O)c1c(-c2ccc(O)cc2)oc2cc(O)cc(CN3CCCCC3)c12 [compound 45]	440	440	1.1 (≈ 0.435 µg/mL)	1.1 (≈ 0.435 µg/mL)	89	100	–
CC(=O)NCCNC(=O)c1c(-c2ccccc2)oc2ccc(O)c(CN3CCCCC3)c12 [compound 44]	500	500	> 40	> 40	104	50	–
CCOC(=O)c1c(-c2ccccc2)oc2cc(O)cc(CN3CCC(NC(C)=O)CC3)c12 [compound 70]	6100	6100	> 40	> 40	91	50	–
CCOC(=O)c1c(-c2ccc(F)cc2)oc2cc(O)cc(CCNS(C)(=O)=O)c12 [compound 74]	–	20000	–	–	88	25	–
CCOC(=O)c1c(-c2ccccc2)oc2ccc(O)c(CN3CCCC(C)C3)c12 (stereo not drawn) [compound 2]	120	–	–	–	–	–	IC50 [1, 9]: 120 ± 20 nM; higher MIC compared to the test compound (Mtb strain mc^27000): ~2 fold; MIC (Mtb strain mc^27000; [13]): 4.4 ± 0.2 µM (≈ 1.73 µg/mL); MIC (Mtb strain mc^27000; [11]): 4.4 ± 0.2 µM (≈ 1.73 µg/mL); growth inhibition in HDF cells relative to DMSO only control ([2]; up to 40 (unit not given)): did not show any growth inhibition
CCOC(=O)c1c(-c2ccccc2)oc2ccc(O)c(CCCN3CC[C@@H](O)C3)c12 [compound 175]	950	–	6.1 (≈ 2.5 µg/mL)	–	–	–	–
O=C(O)c1c(-c2ccccc2)oc2ccc(O)c(CN3CCCCC3)c12 [compound 14]	–	–	–	–	–	–	IC50 [1, 9]: 6600 ± 700 nM; loss / decrease in inhibitory activity compared to compound I ([1]; relative to compound I): ~20 fold; whole-cell activity (Mtb growth inhibition), in words (Mtb strain mc^27000; Mtb mc^27000): completely abolished
CCOC(=O)c1c(-c2ccccc2)oc2ccc(O)c(CN(C)C)c12 [compound 109]	1570 ± 150	–	–	–	–	–	IC50 [1, 9]: 1570 ± 150 nM; loss of inhibitory activity / higher IC50 against Pks13-TE compared to the test compound [1]: > 6 fold; higher MIC compared to the test compound (Mtb strain mc^27000): 3 fold; MIC (Mtb strain mc^27000; [13]): 7.3 ± 0.3 µM (≈ 2.48 µg/mL); MIC (Mtb strain mc^27000; [11]): 7.3 ± 0.3 µM (≈ 2.48 µg/mL)
CC[C@H](CO)NCCc1c(O)ccc2oc(-c3ccccc3)c(C(=O)NC)c12 [compound 234]	5300	–	> 20	–	–	–	–
CCOC(=O)c1c(-c2ccccc2)oc2ccc(O)c(CCCN3CCC3)c12 [compound 165]	800	–	0.08 (≈ 0.0304 µg/mL)	–	–	–	–
CNC(=O)c1c(-c2ccccc2)oc2ccc(O)c(CCNC3CCCC3)c12 [compound 141]	1400	–	–	–	–	–	MIC (Mtb strain mc^27000; [10]): 10.0 µM (≈ 3.78 µg/mL)
CNC(=O)c1c(-c2ccc(O)cc2)oc2ccc(O)c(CN3CCC(C(N)=O)CC3)c12 [compound 123]	1600	–	> 40	–	–	–	–

From patent US20180111913A1, “SUBSTITUTED BENZOFURAN DERIVATIVES AS NOVEL ANTIMYCOBACTERIAL AGENTS” (priority 2015, published 2018)
